Measurements as given in ChEMBL document CHEMBL4270599, “Synthesis of a 3'-C-ethynyl-β-d-ribofuranose purine nucleoside library: Discovery of C7-deazapurine analogs as potent antiproliferative nucleosides” (Eur J Med Chem, 2018).
Active and inactive are the calls of the source. The rule behind the calls is not given here.

Tests used:
[1] = Antitumor activity against human MDA-MB-231-LM2 cells xenografted in SCID mouse assessed as tumor weight at 0.3 mg/kg, it 3 times a week for 2 consecutive weeks starting 10 days post inoculation measured at day 35 (reference value: 551 +/- 74 mg); assay type: functional
Homo sapiens [2] = assay: Antitumor activity against human MDA-MB-231-LM2 cells xenografted in SCID mouse assessed as inhibition of lung metastasis at 0.3 mg/kg, it 3 times a week for 2 consecutive weeks starting 10 days post inoculation measured at day 34; assay type: functional, organism-based
Homo sapiens [3] = assay: Antitumor activity against human MDA-MB-231-LM2 cells xenografted in SCID mouse assessed as decrease in tumor size at 0.3 mg/kg, it 3 times a week for 2 consecutive weeks starting 10 days post inoculation; assay type: functional, organism-based
NCI-H23 = assay: Growth inhibition of human NCI-H23 cells assessed as cell growth at 10^-4 M incubated for 48 hrs by sulforhodamine B assay relative to control; assay type: functional; details: NCI-H23, 48 h, read-out: Activity
HCC 2998 = assay: Growth inhibition of human HCC2998 cells assessed as cell growth at 10^-5 M incubated for 48 hrs by sulforhodamine B assay relative to control; assay type: functional; details: HCC 2998, 48 h, read-out: Activity

SMILES	Activity [1]	Activity (Homo sapiens [2])	Activity (Homo sapiens [3])	growth at 100 µM (NCI-H23)	growth at 10 µM (HCC 2998)
C#C[C@@]1(O)[C@@H](CO)O[C@@H](n2cc(Cl)c3c(N)ncnc32)[C@@H]1O	241 mg	Active	Active		
C#C[C@@]1(O)[C@@H](CO)O[C@@H](n2cc(F)c3c(N)ncnc32)[C@@H]1O				-25%	-45%
C#C[C@@]1(O)[C@@H](CO)O[C@@H](n2ccc3c(N)ncnc32)[C@@H]1O				-35%	-76%
